Results published in US5118705A, “Water soluble salts of purpuromycin and pharmaceutical formulations thereof” (Gruppo Lepetit S.p.A., priority 1990, dated 1992).
Values after ≈ are worked out from the molar mass of the structure shown. Where a name gives a salt, the structure may show the parent alone. Read-outs that look alike come from different tables or passages of the source.

What was measured:
[1] = system: Trichomonas vaginalis strain TVL; assay: Activity against Trichomonas vaginalis, two-fold tube dilution method; type: cell-based
Procedure: Trichomonas vaginalis (applicant's internal code TVL) was grown on Trichomonas Culture Medium Base (Merck) plus 10% heat treated horse serum. Inoculum: approximately 10^5 organisms/ml. Incubation: 48 hours at 37° C.

[2] = system: Gardnerella vaginalis ATCC 14018 and other 11 clinical isolates; assay: Activity against Gardnerella vaginalis, standard two fold dilution methods; conditions: for Number of strains with MIC of 8 mcg/ml: MIC 8 mcg/ml; for Number of strains with MIC of 32 mcg/ml: MIC 32 mcg/ml
Procedure: The strains were grown on Casman medium (Difco) plus 5% (v/v) whole rabbit blood and 0.15 (v/v) lysed rabbit blood. Inoculum size: approximately 10^4 colony forming units per spot. Incubation in an anaerobic hood: 48 hours at 37° C.

[3] = system: Bacteroides fragilis ATCC 23745; assay: In vitro activity, M.I.C., microbroth dilution; type: cell-based; conditions: salts calculated as weight of purpuromycin, 37° C., 48 h, anaerobic hood
Procedure: (§1) MIC were determined by the microbroth dilution test. Bacteria were grown at 37° C., fungi at 30° C. Incubation was for 20 h, except for Propionibacterium acnes, Bacteroides fragilis, Neisseria gonorrhoeae, Haemophilus influenzae (48 h) and Trichophyton mentagrophytes (72h) Neisseria gonorrhoeae and Haemophilus influenzae were incubated in a CO2 -enriched (5%) atmosphere; Propionibacterium acnes and Bacteroides fragilis in an anaerobic hood. Media used were: Oxoid Iso-sensitest broth (Staphylococci, Enterococcus faecalis and Escherichia coli); Difco Todd-Hewitt broth (streptococci); Difco GC base broth with 1% BBL IsoVitaleX (Neisseria gonorrhoeae); Difco Brain-Heart Infusion broth with 1% Difco supplement C (Haemophilus influenzae); Difco Wilkins-Chalgren broth (Propionibacterium acnes and Bacteroides fragilis); Difco Yeast Nitrogen Base broth with 1.5 g/1 asparagine (Candida albicans); Difco Sabouraud-dextrose broth (Trichophyton mentagrophytes). Inocula were approximately 10^4 CFU/ml.

[4] = system: Candida albicans SKF 2270; assay: In vitro activity, M.I.C., microbroth dilution; type: cell-based; conditions: salts calculated as weight of purpuromycin, 30° C., 20 h
Procedure: as §1

[5] = system: Enterococcus faecalis ATCC 7080; assay: In vitro activity, M.I.C., microbroth dilution; type: cell-based; conditions: salts calculated as weight of purpuromycin, 37° C., 20 h
Procedure: as §1

[6] = system: Escherichia coli SKF 12140; assay: In vitro activity, M.I.C., microbroth dilution; type: cell-based; conditions: salts calculated as weight of purpuromycin; 37° C., 20 h
Procedure: as §1

[7] = system: Haemophilus influenzae ATCC 19418; assay: In vitro activity, M.I.C., microbroth dilution; type: cell-based; conditions: salts calculated as weight of purpuromycin; 37° C., 48 h, 5% CO2
Procedure: as §1

[8] = system: Neisseria gonorrhoeae L 997; assay: In vitro activity, M.I.C., microbroth dilution; type: cell-based; conditions: salts calculated as weight of purpuromycin, 37° C., 48 h, 5% CO2
Procedure: as §1

[9] = system: Propionibacterium acnes ATCC 6919; assay: In vitro activity, M.I.C., microbroth dilution; type: cell-based; conditions: salts calculated as weight of purpuromycin, 37° C., 48 h, anaerobic hood
Procedure: as §1

Staph. aureus Tour L 165 = assay: In vitro activity, M.I.C., microbroth dilution; type: cell-based; conditions: salts calculated as weight of purpuromycin, 37° C., 20 h
Procedure: as §1

[10] = system: Staph. epidermidis ATCC 12228; assay: In vitro activity, M.I.C., microbroth dilution; type: cell-based; conditions: salts calculated as weight of purpuromycin, 37° C., 20 h
Procedure: as §1

Staph. haemolyticus L602 = assay: In vitro activity, M.I.C., microbroth dilution; type: cell-based; conditions: salts calculated as weight of purpuromycin, 37° C., 20 h
Procedure: as §1

Strep. pneumoniae L44 = assay: In vitro activity, M.I.C., microbroth dilution; type: cell-based; conditions: salts calculated as weight of purpuromycin; 37° C., 20 h
Procedure: as §1

Strep. pyogenes L49 = assay: In vitro activity, M.I.C., microbroth dilution; type: cell-based; conditions: salts calculated as weight of purpuromycin, 37° C., 20 h
Procedure: as §1

[11] = system: Trichophyton mentagrophytes SKF 17410; assay: In vitro activity, M.I.C., microbroth dilution; type: cell-based; conditions: salts calculated as weight of purpuromycin, 30° C., 72 h
Procedure: as §1

[12] = system: Trichomonas vaginalis TVL; assay: In vitro activity, M.I.C., microtiter trays; type: cell-based; conditions: salts calculated as weight of purpuromycin, 48 h, anaerobic hood, 37° C.
Procedure: MIC were performed in flat-bottomed microtiter trays, with 0.2 ml per well. The medium was TYM modified basal medium (Merck) plus 10% horse serum (treated to inactivate complement). The inoculum was ca. 10^5 organisms/ml; incubation was for 48 h in an anaerobic hood (37° C.).The microtiter wells were read using an inverted light microscope. The MIC was taken as the lowest concentration at which no live (mobile) protozoa were seen.

Gardnerella vaginalis = assay: In vitro activity, M.I.C., agar dilution; type: cell-based; conditions: salts calculated as weight of purpuromycin, ATCC 14018 and 10 clinical isolates, all same M.I.C., inoculum ca. 10^5 CFU, 48 h
Procedure: **The assay was carried out on strain ATCC 14018 and 10 clinical isolates
Incubation was for 48 h in an anaerobic hood (37° C.); inoculum ca. 10^5 CFU.

[13] = system: Candida albicans strain SKF 2270; assay: Topical antifungal activity in ovariectomized rats (yeast vaginal infection); type: in vivo, rats (Charles River); conditions: twice daily for three days
Procedure: The effectiveness of the water soluble salts of purpuromycin in the topical treatment of yeast vaginal infection was also tested in ovariectomized rats (Charles River) treated subcutaneously with 4 mg of estradiol benzoate approximately two weeks after ovariectomy. Five days later they were inoculated intravaginally with approximately 5×10^6 colony forming units (CFU) of Candida albicans strain SKF 2270 in 25 microliters of Nutrient Broth (no.2, Oxoid) containing 15% (vol/vol) of glycerol. Topical intravaginal therapy was twice daily for three days, starting one day after infection, with 100 microliters of a water soluble salt of purpuromycin suspension in a mixture of 10:90 DMSO-polyethylene glycol 400, corresponding to 2 or 5 mg/rat/treatment. The day after the last treatment, vaginal smear samples (calibrated 10 microliter loops) were diluted and plated for viable organism counts on Sabouraud agar (Difco). Each group contained 10 animals.

[14] = Solubility and pH of solution; type: physicochemical
[15] = system: Candida albicans ATCC 10231; assay: Activity against Candida strains, two-fold dilution method; type: cell-based; conditions: Candida albicans, ATCC10231, 20 h; comparative tests, antibacterial agents; read-out: M.I.C.
Procedure: (§2) This set of experiments included also one strain each of two other Candida species, Candida tropicalis and Candida kruzei. The M.I.C. were determined by the two-fold dilution method in buffered (0.01 M phosphate buffer, pH 7.4) yeast nitrogen base medium (Difco) supplemented with 1.5 g/liter asparagine in microtiter trays. Inocula were approximately 10^4 colony forming units/ml. Incubation was for 20 h at 30° C. Purpuromycin was dissolved in DMSO and added to the cultures as above.

[16] = system: Candida albicans SKF 2270; assay: as above; type: cell-based; conditions: Candida albicans, SKF2270, 20 h; comparative tests, antibacterial agents; read-out: M.I.C.
Procedure: as §2

[17] = MIC >128 mcg/ml, 12 strains tested

C[C@@H]1[C@H](O)[C@@H](C)/C=C/C=C/C=C/C=C/C=C/C=C/C=C/[C@H](O[C@@H]2O[C@H](C)[C@@H](O)[C@H](N)[C@@H]2O)C[C@@H]2O[C@](O)(C[C@@H](O)C[C@@H](O)[C@H](O)CC[C@@H](O)C[C@@H](O)CC(=O)O[C@H]1C)C[C@H](O)[C@H]2C(=O)O [Amphotericin B]
MIC ([1]; Trichomonas vaginalis, 48 h): 64 µg/mL (≈ 69.3 µM)

Clc1ccccc1C(c1ccccc1)(c1ccccc1)n1ccnc1 [Clotrimazole]
MIC ([1]; Trichomonas vaginalis, 48 h): 64 µg/mL (≈ 186 µM) | Number of strains with MIC of 8 mcg/ml ([2]; 12 strains tested): 2 strains | Number of strains with MIC of 16 mcg/ml ([2]; MIC 16 mcg/ml, 12 strains tested): 1 strains | Number of strains with MIC of 32 mcg/ml ([2]; 12 strains tested): 2 strains | Number of strains with MIC of >128 mcg/ml [2, 17]: 2 strains

CC(=O)N1CCN(c2ccc(OCC3COC(Cn4ccnc4)(c4ccc(Cl)cc4Cl)O3)cc2)CC1 (stereo not drawn) [Ketoconazole]
MIC ([1]; Trichomonas vaginalis, 48 hours at 37° C., read-out: MIC): > 128 µg/mL

Clc1ccc(COC(Cn2ccnc2)c2ccc(Cl)cc2Cl)c(Cl)c1 (stereo not drawn) [Miconazole]
MIC ([1]; Trichomonas vaginalis, 48 h): 32 µg/mL (≈ 76.9 µM) | MIC ([2]; Gardnerella vaginalis, read-out: MIC on resistant strains): > 128 µg/mL | Number of strains with MIC of 4 mcg/ml ([2]; MIC 4 mcg/ml, 12 strains tested): 1 strains | Number of strains with MIC of 8 mcg/ml ([2]; 12 strains tested): 7 strains | Number of strains with MIC of 32 mcg/ml ([2]; 12 strains tested): 2 strains | Number of strains with MIC of >128 mcg/ml [2, 17]: 2 strains

C[C@@H]1[C@H](O)[C@@H](C)/C=C/C=C/CC/C=C/C=C/C=C/C=C/C(O[C@H]2O[C@H](C)[C@@H](O)[C@H](N)[C@@H]2O)CC2O[C@](O)(CC(O)C(O)CCC(O)CC(O)CC(O)CC(=O)O[C@H]1C)CC(O)C2C(=O)O (stereo partly drawn) [Nystatin]
MIC ([1]; 48 hours at 37° C.): > 128 µg/mL | Number of strains with MIC of >128 mcg/ml [2]: 12 strains | MIC on resistant strains ([2]; strains resistant to the named drug): > 128 micrograms/ml

COC(=O)c1cc2cc3c(c(O)c2c(=O)o1)OC1(Cc2c(O)c4c(c(O)c2O1)C(=O)C(OC)=CC4=O)CC3O [Purpuromycin salt with L-lysine (1:1.5), Salt of purpuromycin with L-lysine]
MIC ([3]; Bacteroides fragilis, ATCC23745): 0.13 µg/mL | MIC ([4]; Candida albicans, SKF2270): 1 µg/mL | MIC ([5]; Enterococcus faecalis, ATCC7080): 0.06 µg/mL | M.I.C. [6]: 32 mg/L | M.I.C. [7]: 0.13 mg/L | MIC ([8]; Neisseria gonorrhoeae, L997): 0.06 µg/mL | MIC ([9]; Cutibacterium acnes, ATCC6919): 0.06 µg/mL | MIC (Staph. aureus Tour L 165; Staphylococcus aureus, TOURL165): 0.06 µg/mL | MIC ([10]; Staphylococcus epidermidis, ATCC12228): 0.06 µg/mL | MIC (Staph. haemolyticus L602; Staphylococcus haemolyticus, L602): 0.06 µg/mL | M.I.C. (Strep. pneumoniae L44): 0.13 mg/L | MIC (Strep. pyogenes L49; Streptococcus pyogenes, L49): 0.06 µg/mL | MIC ([11]; Trichophyton mentagrophytes, SKF17410): 1 µg/mL | MIC ([12]; Trichomonas vaginalis): 4 µg/mL | MIC (Gardnerella vaginalis; Gardnerella vaginalis): 16 µg/mL | Mean log10 CFU/smear sample ± SD ([13]; 2 mg/rat/treatment intravaginal, vehicle 3.87 ± 0.50, P < 0.01 vs group 1 controls): 2.60 ± 0.49 log10 CFU/smear sample | numbers of viable yeasts cell/sample ([13]; topical intravaginal): significantly reduced numbers of viable yeasts cell/sample | pH value of a 0.5% (w/v) solution ([14]; distilled water): 8.5 | solubility in distilled water ([14]; room temperature, calculated as purpuromycin, listed as Example 2): 7400 µg/mL

COC(=O)c1cc2cc3c(c(O)c2c(=O)o1)OC1(Cc2c(O)c4c(c(O)c2O1)C(=O)C(OC)=CC4=O)CC3O (stereo not drawn) [Purpuromycin salt with TRIS (1:1.5), Salt of purpuromycin with tris-(hydroxymethyl) aminomethane]
M.I.C. [3]: 0.13 mg/L | M.I.C. [4]: 1 mg/L | M.I.C. [5]: 0.06 mg/L | M.I.C. [6]: 16 mg/L | M.I.C. [7]: 0.06 mg/L | M.I.C. [8]: 0.06 mg/L | M.I.C. [9]: 0.06 mg/L | M.I.C. (Staph. aureus Tour L 165): 0.06 mg/L | M.I.C. [10]: 0.06 mg/L | M.I.C. (Staph. haemolyticus L602): 0.06 mg/L | M.I.C. (Strep. pneumoniae L44): 0.13 mg/L | M.I.C. (Strep. pyogenes L49): 0.06 mg/L | M.I.C. [11]: 1 mg/L | M.I.C. [12]: 4 mg/L | M.I.C. (Gardnerella vaginalis): 16 mg/L | pH value of the solution ([14]; solution at 4.5 mg/ml in distilled water): 8.8 | solubility ([14]; water, room temperature, calculated as purpuromycin, read-out: solubility in distilled water): 4500 µg/mL

CC1(C)S[C@@H]2[C@H](NC(=O)[C@H](N)c3ccccc3)C(=O)N2[C@H]1C(=O)O [ampicillin]
MIC [15]: > 128 µg/mL | MIC [16]: > 128 µg/mL
